Data on four molecules can be found in PMC4428793, “MK571 inhibits phase-2 conjugation of flavonols by Caco-2/TC7 cells, but does not specifically inhibit their apical efflux^” (Biochemical Pharmacology, 2015).

Where “and” joins values, the source holds several entries; their conditions need not be identical. Equal values may be shown once.

One may read the Ki as a dissociation constant, usually derived from enzyme kinetics or from competition with a known ligand.

One series deals with Bcrp1. Further details: method as in PMID 15749994. Particulars: Mrp2 deficient rats; ref [33]; cited from earlier work.
The subject of a further series is Caco-2/TC7 cells. Briefly: Flavonol metabolism and transport experiments on Caco-2/TC7 transwell monolayers, effect of MK571. Particulars: for Ap:Bl ratio (50 μM MK571) / Ap:Bl ratio (No MK571): apical to basolateral ratio of efflux of the conjugate, 12-well transwells. In kind it is cell-based, human. Here is the method:
Cells were grown at 37 °C in a humidified incubator with 5% CO2 in Dulbecco Modified Eagle's Medium (DMEM) containing 1% non-essential amino acids, 1% L-glutamine, 100 IU/mL penicillin and 100 μg/mL streptomycin, 1 g/L glucose, and supplemented with 20% (v/v) heat inactivated fetal calf serum. Cells were passaged at 80% confluency, and seeded at 2–4 × 10^4 cells per cm^2 on 10 cm dishes (growing area 75 cm^2) or 12-well transwells (growing area of 1.1 cm^2). […] Toxicity of MK571 on Caco-2/TC7 cell monolayers was determined through comparison of pre- and post-loading TEER values of wells incubated with MK571.
Flavonol stocks (quercetin, kaempferol, galangin; 10 mM) were prepared in dimethylsulfoxide (DMSO) and stored at −20 °C. MK571 was dissolved in dimethyl sulfoxide (10 mM final concentration) and stored at −20 °C. Prior to the metabolism or transport experiments, cells were aspirated of media and washed three times with phosphate buffered saline (PBS). To foetal calf serum and phenol red-free DMEM was added ascorbic acid at a final concentration of 100 μM as well as MK571 at the desired concentration. For metabolism experiments, 10 mL of this media was added to the cells in 10 cm dishes. For transport experiments using transwells, 0.6 mL of this media was added to the apical compartment of the transwell and 1 mL was added to the basolateral compartment. Control wells received an equivalent dose of dimethyl sulfoxide as the treatment wells. Cells were incubated at 37 °C for 30 min, after which flavonols dissolved in dimethyl sulfoxide (kaempferol, galangin or quercetin) were added to the media of treatment wells at a final concentration of 40 or 100 μM, while control wells were treated with the dimethyl sulfoxide vehicle alone. Concentrations of quercetin were increased to 100 μM because instability of quercetin in media necessitated higher initial loading to maintain adequate cellular and media concentrations for uptake and metabolism of the flavonol. Control and treatment cells were incubated at 37 °C for the periods indicated in the results.
Following the required incubation period, media and cell fractions were harvested and analysed to identify and quantify flavonol metabolites using HPLC. Media was removed from the apical (0.5 mL) and basolateral (0.5 mL) compartments of transwells and added to 25 μL trifluoroacetic acid and 25 μL HPLC grade acetonitrile. Media from 10 cm dishes (1 mL) was removed and added to 50 μL trifluoroacetic acid and 25 μL HPLC grade acetonitrile. Cells were washed three times with cold (room temperature) phosphate buffered saline solution and scraped free of the dish surface. For transwells, 100 μL MilliQ water was added to the cells and the resulting cell suspension pipetted into 10 μL trifluoroacetic acid and 10 μL HPLC grade acetonitrile. For 10 cm dishes, the resulting cell suspension was pipetted into 25 μL trifluoroacetic acid and 25 μL HPLC grade acetonitrile. Samples were either analysed immediately or otherwise stored at −20 °C prior to HPLC analysis. Flavonols were stable during frozen storage and thawing (no significant losses up to 26 weeks).
Media samples were thawed where necessary and then mixed using a vortex mixer, centrifuged for 10 min at 14,000 × g using a micro centrifuge, and the supernatant removed and placed in an HPLC vial for analysis. Cell samples were vortex-mixed and then ultra-sonicated (sonic water bath) for 10 min, vortex mixed again and then centrifuged for 10 min at 14,000 × g using a micro-centrifuge, before removal of supernatant for HPLC analysis. Identification and quantification of individual flavonol metabolites was carried out using liquid chromatography–mass spectrometry and nuclear magnetic resonance analyses, as described previously. […]
(Passage across Caco-2 layers is used to estimate intestinal permeability.)

The test system of a further series is Caco-2/TC7 cell lysate. Nature of the series: Flavonol conjugate production by Caco-2/TC7 cell free lysate, effect of MK571. In kind it is biochemical, human. The note with it: aglycone 40 μM; for Change in rate (%): MK571 50 μM vs control; for Rate +MK571 (conjugate production): MK571 50 μM; for Rate +MK571 (conjugate production) / Rate control (conjugate production): slope (standard error of the slope); for Rate control (conjugate production): no MK571. Here is the method:
Cells were grown until 21 days post confluent and washed and aspirated as described previously. The cells were then scraped into tubes and these tubes kept on ice at all times throughout the preparation procedure. Homogenisation buffer comprised of sodium phosphate buffer (50 mM adjusted to pH 6.5; 20 mL), two mini protease inhibitor cocktail tablets containing EDTA and perfabloc, dithiothreitol (30.8 mg), alamethacin (20 μL of a 22 μg/mL) solution from T. viride; and MgCl2 (3.5 mg). Cell-free homogenates were prepared by mixing cells with homogenisation buffer (50:50, vol/vol) and vortexing with glass beads in an eppendorf tube three times for 1 min over a 10 min period. To 900 μL of cell free lysate was added 10 μL uridine 5′-diphosphoglucuronic acid (4 mM final concentration) with uridine 5′-diphospho-N-acetyl-glucosamine (dissolved in homogenisation buffer, 2 mM final concentration); 10 μL MK571 (50 mmol/L stock diluted 1:9 with homogenisation buffer) or 10 μL dimethyl sulfoxide blank (diluted 1:9 with homogenisation buffer). The tubes were allowed to warm and once they reached 37 °C, the flavonols were added at the relevant concentration (kaempferol, quercetin or galangin; 10 mmol/L stock in dimethyl sulfoxide diluted 1:1 with homogenisation buffer, plus homogenisation buffer added to create a final volume of 1000 μL) and the tube vortexed briefly. The experiment was stopped by addition of a mixture of 50 μL trifluoracetic acid and 50 μL acetonitrile. Samples were then centrifuged for 10 min at 14,000 × g. The supernatant was removed and analysed via HPLC.

Series [1] relates to Caco-2 cell culture model. Further details: method as in PMID 12893842. The note with it: 50 μM MK571; ref [39]; cited from earlier work.
Series [2] relates to UDP-β-D-glucuronosyl transferase (UDP-GT) activity in the Caco2 cell-free extracts. Nature of the series: Enzyme kinetics of kaempferol glucuronidation in Caco2 cell-free extracts (Km, Vmax, Ki). In kind it is biochemical, human. The note with it: substrate kaempferol 5–150 μM; estimated from reciprocal plots; read-out: Ki for inhibition of the synthesis of K-4′-O-GlcA. Here is the method: Cells were grown until 21 days post confluent and washed and aspirated as described previously. The cells were then scraped into tubes and these tubes kept on ice at all times throughout the preparation procedure. Homogenisation buffer comprised of sodium phosphate buffer (50 mM adjusted to pH 6.5; 20 mL), two mini protease inhibitor cocktail tablets containing EDTA and perfabloc, dithiothreitol (30.8 mg), alamethacin (20 μL of a 22 μg/mL) solution from T. viride; and MgCl2 (3.5 mg). Cell-free homogenates were prepared by mixing cells with homogenisation buffer (50:50, vol/vol) and vortexing with glass beads in an eppendorf tube three times for 1 min over a 10 min period. […] The supernatant was removed and analysed via HPLC.
Estimates of initial rates (v) of formation of flavonol conjugates by UDP-β-D-glucuronosyl transferase (UDP-GT) activity in the Caco2 cell-free extracts were calculated for each concentration of S (S = kaempferol; [S] range 5–150 μM). […] The type of inhibition was determined by plotting 1/v versus 1/S for each of the inhibitor (MK571) concentrations tested and observing the location of the intersection of the lines, which also gave estimated values for Km and Vmax. […]

For another series, the system named is Caco-2 cells. Particulars: cited from earlier work.
Where [3] appears, read: 50 μM MK571, Caco-2 cells, ref Walle et al. [28].
Setting [4] is: 50 μM MK571, vs vehicle-only control, transwell monolayers.
The mark [5] stands for this setting: galangin 40 μM + 50 μM MK571 apical, 60 min.
Where [6] appears, read: in the presence of MK571 (Table 1: 50 μM).
Where [7] appears, read: kaempferol 40 μM + 50 μM MK571 apical, 60 min.
Setting [8] is: kaempferol 40 μM + 100 μM MK571 apical, 60 min.
Setting [9] is: quercetin 100 μM + 50 μM MK571 apical, 60 min.

Consider `COc1ccc2c3c([nH]c2c1)[C@H](C=C(C)C)N1C(=O)[C@@H]2CCCN2C(=O)[C@@H]1C3` [FTC], for which, in the series on Bcrp1, the “Total plasma quercetin and isorhamnetin concentrations” value is “twice that of controls”.

`O=C(O)[C@H]1O[C@@H](Oc2ccc(-c3oc4cc(O)cc(O)c4c(=O)c3O)cc2O)[C@H](O)[C@@H](O)[C@@H]1O` [Q-4′-GlcA]: in the series with Caco-2/TC7 cells (60 min), the “Ap:Bl ratio (50 μM MK571)” value is recorded as 0.25 (±0.035) and the “Ap:Bl ratio (No MK571)” value is recorded as 0.23 (±0.034). Moreover, in the series with Caco-2/TC7 cell lysate, the “Change in rate (%)” value is recorded as “+12.1%”, the “Rate +MK571 (conjugate production)” value is recorded as 0.28 (±0.03) pmol/h and the “Rate control (conjugate production)” value is 0.25 (±0.01) pmol/h.

Consider `O=C(O)[C@H]1O[C@@H](Oc2c(-c3ccccc3)oc3cc(O)cc(O)c3c2=O)[C@H](O)[C@@H](O)[C@@H]1O` [G-3-GlcA, galangin-3-glucuronide], for which, in the series with Caco-2/TC7 cells (60 min), the “Ap:Bl ratio (50 μM MK571)” value is given as 0.35 (±0.091) and the “Ap:Bl ratio (No MK571)” value is 0.24 (±0.033). For the same molecule, in the series on Caco-2/TC7 cell lysate, the “Change in rate (%)” value was −63.2%, the “Rate +MK571 (conjugate production)” value is 25.3 (±2.30) pmol/h and the “Rate control (conjugate production)” value is on record as 68.8 (±6.12) pmol/h.

`CN(C)C(=O)CCSC(SCCC(=O)O)c1cccc(/C=C/c2ccc3ccc(Cl)cc3n2)c1` (centres unmarked) [MK571]: in series [1], the Apigenin sulfation result is recorded as “not inhibited” and the “Inhibition of apigenin glucuronidation” value is given as 30–40%. The Ki in series [2] is 19.7 µM. Besides, in the series on Caco-2 cells (setting [3]), the “Inhibition of chrysin glucuronide efflux” value was 71% and the “Inhibition of chrysin sulphate efflux” value is listed as 25%. Further, the “Efflux of methylated sulphate conjugates and sulphate conjugates of epigallocatechin” value with Caco-2 cells (50 μM, ref [35]) is on record as “substantially inhibited”. Also, in the series with Caco-2 cells (ref [36]), the “Inhibition of apical efflux of epicatechin sulphate conjugates” value is listed as above 50%. In the series with Caco-2/TC7 cells (50 μM MK571), the “Increase in galangin aglycone concentration of the cellular extract” value is “+180%”, the “Increase in kaempferol aglycone concentration of the cellular extract” value is listed as “+182%”, the “Increase in quercetin aglycone concentration of the cellular extract” value is on record as “+119%” and the “Reduction in production of kaempferol sulphates” value came out at 50.8%. Moreover, in the series with Caco-2/TC7 cells (50 μM MK571), the “Reduction in production of total kaempferol glucuronides” value was 52.3%. Further, the “Reduction in apical efflux of kaempferol conjugates” value in the series on Caco-2/TC7 cells (50 μM MK571, vs no MK571, transwell monolayers) is 44% and 43.2%. In the series with Caco-2/TC7 cells (setting [4]), the “Reduction in apical efflux of galangin conjugates” value was 38% and 38.5%; the “Reduction in apical efflux of quercetin conjugates” value is listed as 37.1%. In the series with Caco-2/TC7 cells (100 μM MK571), the “Increase in kaempferol aglycone concentration of the cellular extract” value is listed as “+229%”, the “Reduction in production of kaempferol sulphates” value was 88.4% and the “Reduction in production of total kaempferol glucuronides” value is 67.2%. Also, in the series with Caco-2/TC7 cells (setting [5]), the “Apical galangin conjugates, change vs no MK571” value is reported as −38.5%; the “Apical galangin conjugates, rate” value stood at 1.789 nmol/h; the “Basolateral galangin conjugates, change vs no MK571” value is on record as −43.6%; the “Basolateral galangin conjugates, rate” value is listed as 2.279 nmol/h. In the series on Caco-2/TC7 cells (setting [5]), the “Cellular galangin conjugates, change vs no MK571” value is −28.7%; the “Cellular galangin conjugates, rate” value amounted to 0.004 nmol/h; the “Total galangin conjugates, change vs no MK571” value is on record as −41.4%; the “Total galangin conjugates, rate” value was found to be 4.072 nmol/h. Also, in the series on Caco-2/TC7 cells (setting [6]), the “Decrease in galangin glucuronides” value turned out to be 42.8%, the “Decrease in galangin sulphates” value is reported as 37.0%, the “Decrease in quercetin glucuronides” value turned out to be 56.5% and the “Decrease in quercetin sulphates” value stood at 39.6%. Further, in the series on Caco-2/TC7 cells (setting [7]), the “Apical kaempferol conjugates, change vs no MK571” value is −43.2%; the “Apical kaempferol conjugates, rate” value came to 1.196 nmol/h; the “Basolateral kaempferol conjugates, change vs no MK571” value was −56.7%; the “Basolateral kaempferol conjugates, rate” value was found to be 1.484 nmol/h. Besides, in the series on Caco-2/TC7 cells (setting [7]), the “Cellular kaempferol conjugates, change vs no MK571” value is −20.0%; the “Cellular kaempferol conjugates, rate” value is recorded as 0.004 nmol/h; the “Total kaempferol conjugates, change vs no MK571” value was −51.5%; the “Total kaempferol conjugates, rate” value was found to be 2.684 nmol/h. Besides, in the series with Caco-2/TC7 cells (setting [8]), the “Apical kaempferol conjugates, change vs no MK571” value is on record as −81.9%; the “Apical kaempferol conjugates, rate” value worked out at 0.382 nmol/h; the “Basolateral kaempferol conjugates, change vs no MK571” value is listed as −69.0%; the “Basolateral kaempferol conjugates, rate” value came out at 1.062 nmol/h. In addition, in the series on Caco-2/TC7 cells (setting [8]), the “Cellular kaempferol conjugates, change vs no MK571” value is recorded as −24.2%; the “Cellular kaempferol conjugates, rate” value amounted to 0.003 nmol/h; the “Total kaempferol conjugates, change vs no MK571” value is reported as −73.9%; the “Total kaempferol conjugates, rate” value came to 1.447 nmol/h. Besides, in the series on Caco-2/TC7 cells (setting [9]), the “Apical quercetin conjugates, change vs no MK571” value is listed as −37.1%; the “Apical quercetin conjugates, rate” value was 0.706 nmol/h; the “Basolateral quercetin conjugates, change vs no MK571” value is −56.3%; the “Basolateral quercetin conjugates, rate” value is on record as 1.275 nmol/h. Further, in the series with Caco-2/TC7 cells (setting [9]), the “Cellular quercetin conjugates, change vs no MK571” value was −2.72%; the “Cellular quercetin conjugates, rate” value is 0.004 nmol/h; the “Total quercetin conjugates, change vs no MK571” value is −50.9%; the “Total quercetin conjugates, rate” value was found to be 1.985 nmol/h.
